In patent publication US20110160213A1, “PHARMACEUTICAL COMPOSITIONS FOR THE TREATMENT OF INFLAMMATORY AND ALLERGIC DISORDERS” (Glenmark Pharmaceuticals, S.A., priority 2007, published 2011):

Assay: Solubility by shake flask method in various media
Type: physicochemical
Conditions: for Solubility: about 37° C., after 24 hours

Solubility (0.1N HCl with 1% sodium lauryl sulphate): 8.81 mg/250 ml
Solubility (0.1N HCl): 9.17 mg/250 ml
Solubility (Acetate buffer pH 4.5): 1.69 mg/250 ml
Solubility (Acetate buffer pH 4.5 with 0.1% SLS): 4.81 mg/250 ml
Solubility (Citrate buffer pH 3.0): 6.02 mg/250 ml
Solubility (Citrate buffer pH 3.0 with 1% Triton X): 8.6 mg/250 ml
Solubility (Water): 0.68 mg/250 ml
Solubility in water (in words) (water): poor solubility in water
SMILES: O=C(Nc1c(Cl)c[n+]([O-])cc1Cl)c1ccc(OC(F)F)c2oc3ccncc3c12.[Na] [3,5-dichloro-4-(6-difluoromethoxybenzo[4,5]furo[3,2-c]pyridin-9-ylcarboxamido)-1-pyridiniumolate, sodium salt]
